According to US10939678B2, “Adjuvant compositions and related methods for reducing herbicide volatility” (BOARD OF TRUSTEES OF MICHIGAN STATE UNIVERSITY, priority 2015, dated 2021):
Where a name gives a salt, the structure may show the parent alone.

Columns and labels:
[1] = tested on: soybean plants (PIONEER 92M92); assay: Bioassay of herbicide volatility from sprayed wheat to soybean plants in plant growth chambers (visual soybean injury); format: in vivo; conditions: 1.12 kg a.i./ha, without any adjuvants
Description: A wide range of soil, plant, environmental, and herbicide factors (e.g., vapor pressure and water solubility of herbicide, surface characteristics) can affect herbicide volatility from soils and plants. Comparison of the volatilization would be most readily visualized by appropriate bioassay systems. These examples illustrate a bioassay system for evaluating herbicide volatilization from plant substrates. In the bioassay system, a herbicide composition including a volatile growth regulator herbicide (2,4-D) and one or more adjuvants was applied foliarly to wheat plants (amber red wheat). Twenty minutes later, soybean plants (PIONEER 92M92 soybean plants) sensitive to the volatile growth regulator herbicide were placed in the middle of the sprayed wheat plants.
Measurement of herbicide volatility from wheat to soybean. Plant growth chambers formed from clear circular plastic containers (about 27 cm diameter) with a spacer pot in the middle were used to grow wheat plants (from amber red wheat seed) in a professional potting mix. […] The herbicide compositions were prepared and applied at a rate of 0.84 kg a.i./ha (active ingredient per hectare) at 93.5 L/ha (10 gal/acre) and 172 kPa (25 psi) using a flat fan nozzle tip (TEEJET XR8001E or equivalent; available from Spraying Systems, Co., Wheaton, Ill.).
Soybean plants (PIONEER 92M92) were seeded into 10 cm diameter round pots. A single pot with soybean plants was placed in the center of each circular plastic container 20 minutes after spraying the wheat with the respective herbicide treatment composition (i.e., with the soybean plant pot replacing the spacer pot present during wheat growth and herbicide composition application). Open clear plastic cylinders were then taped to the top of the circular containers and placed in a greenhouse. The open clear plastic cylinders were tall enough to add an open circumferential wall (about 28 cm high and having a circular top opening about 20 cm in diameter) to the plant growth chambers (i.e., with the height being relative to the soil surface for the wheat and soybean plants). Visual evaluation of soybean injury was evaluated 7, 10, 14, and 21 days after treatment/application (DAT) of the herbicide composition and continued growth under greenhouse conditions. Data were subjected to analysis of variance using PROC GLM in SAS and the results are the means of two experiments with four replications in each.
Similar trials were also performed using herbicide compositions with volatile dicamba volatile growth regulator herbicides (dimethylamine salt of dicamba (BANVEL) and diglycolamine salt of dicamba (CLARITY)) at 1.12 kg a.i./ha in place of 2,4-D and without any adjuvants.

[2] = approximate, by way of illustration; cited from earlier work

| Compound | % injury of soybean plants from dicamba volatility ([1]; 7-DAT) | % injury of soybean plants from dicamba volatility ([1]; 14-DAT) | % injury of soybean plants from dicamba volatility ([1]; 21-DAT) | vapor pressure [2] |
| --- | --- | --- | --- | --- |
| COc1c(Cl)ccc(Cl)c1C(=O)O [diglycolamine salt of dicamba, 3,6-dichloro-2-methoxybenzoic acid] | about 28% | about 31% | about 41% | – |
| CCCCOCCOC(=O)COc1ccc(Cl)cc1Cl [2,4-D butoxyethyl ester] | – | – | – | ~3.2×10^−4 Pa |
| CC(C)OC(=O)COc1ccc(Cl)cc1Cl [2,4-D isopropyl ester] | – | – | – | ~1.9×10^1 Pa |
| COc1c(Cl)ccc(Cl)c1C(=O)O [dimethylamine salt of dicamba, 3,6-dichloro-2-methoxybenzoic acid] | ~39% | ~39% | about 41% | – |
| CCCCC(CC)COC(=O)COc1ccc(Cl)cc1Cl (stereo not drawn) [2,4-D 2-ethylhexyl ester] | – | – | – | ~4.8×10^−4 Pa |
